# What was measured:
# [1] = tested on: dopaminergic neurons in rat primary mesencephalic neuron-glia cultures; experiment: [3H]DA uptake in LPS-treated mesencephalic neuron-glia cultures; assay type: cell-based; conditions: LPS 10 ng/ml, 7 days; for LPS-induced decrease in [3H]-dopamine uptake: 30 min pretreatment
# Procedure: Neuron-glia cultures were prepared from the ventral mesencephalic tissues of embryonic day 13-14 Fisher F344 rats or day 12-13 wild-type C57BL/6J (gp91phox^+/+) mice. Dissociated cells were seeded at 1×10^5/well and 5×10^5/well to poly-D-lysine-coated 96-well and 24-well plates, respectively. Cells were maintained at about 37° C. in a humidified atmosphere of 5% CO2 and 95% air, in minimal essential medium (MEM) containing 10% fetal bovine serum (FBS), 10% horse serum (HS), 1 gm/l glucose, 2 mM L-glutamine, 1 mM sodium pyruvate, 100 μM nonessential amino acids, 50 U/ml penicillin, and 50 μg/ml streptomycin. Seven-day-old cultures were used for treatment.
# Dextromethorphan (obtained from Sigma-Aldrich (St. Louis, Mo.) as dextromethorphan hydrobromide) was freshly prepared as a stock solution (1 mM) in ddH2O and sterile-filtered right before use. For treatment of the cultures, the DM was serially diluted (10×) with fresh culture medium containing 2% of fetal bovine and horse serum. The neuron-glia cultures were pretreated with 10^−5-10^−17M DM 30 minutes prior to treatment with 10 ng/ml of LPS.
# Seven days after treatment, the degeneration of dopaminergic neurons was assessed by [^3H]-dopamine (DA) uptake assays. The [^3H]-DA uptake assays were performed as follows. Cultures were washed twice with warm Krebs-Ringer buffer (KRB, 16 mM sodium phosphate, 119 mM NaCl, 4.7 mM KCl, 1.8 mM CaCl2, 1.2 mM MgSO4, 1.3 mM EDTA, and 5.6 mM glucose; pH7.4) and then incubated for about 20 minutes at about 37° C. with 1 μM [^3H]-DA in KRB in order to allow for the uptake of DA. Afterwards, the cultures were washed (three times) with ice-cold KRB and the cells were collected in 1 N NaOH. Radioactivity was determined by liquid scintillation counting.
# This example tests whether or not post-treatment with DM is still neuroprotective in LPS-induced neurotoxicity. Neuron-glia co-cultures as prepared in Example 1 were first treated with LPS (20 ng/ml) for twelve hours, and then LPS was removed by removing the media from the cultures and washing twice with PBS. Different concentrations of DM (10^−5, 10^−10, and 10^−14 M) were then added to the cultures and incubation was continued for another 6 or 7 days. The DA uptake and the superoxide production were measured as in Example 1 and 5.
# Neuron-glia cell cultures were prepared as in Example 1, and pretreated with the various peptide fragments of Table 1 (peptide fragments were obtained from BACHEM) for 30 minutes followed by addition of 5 ng/ml of LPS. DA neurotoxicity was measured as an Example 1 at 7 days post treatment.
# DA neurotoxicity was measured at 7 days post treatment as in Example 1. Dopaminergic neuronal death was determined at 7 days post treatment using immunocytochemical staining as in Example 2.
# Neuron-glia cultures were prepared from the ventral mesencephalic tissues of embryonic day 13-14 rats. Dissociated cells were seeded at 1×10^5/well and 5×10^5/well to poly-D-lysine-coated 96-well and 24-well plates, respectively.
# [2] = tested on: dopaminergic neurons in neuron-glia co-cultures; experiment: [3H]DA uptake in Aβ-treated neuron-glia cultures; assay type: cell-based, rat; conditions: micro- and femtomolar DM, 30 min pretreatment, Aβ 0.75 μM
# Procedure: Neuron-glia co-cultures were prepared and treated with vehicle alone, Aβ 0.75 μM alone, or DM 30 min prior to treatment with Aβ0.75 μM similar to Example 1. Amyloid-β peptide (25-35 and 1-42) was obtained from American Peptide Co., Inc (Sunnyvale, Calif.). Neurotoxicity was assessed by DA uptake as in Example 1. Results are expressed as a percentage of the control cultures and are the mean±S.E.M. of three to eight individual experiments with triplicates in each experiment. ##, P<0.01 compared with the control culture; *, P<0.05 compared with Aβ-treated culture.
# iROS = iROS production in neuron-glia cultures of PHOX+/+ and PHOX−/− mice; assay type: cell-based, mouse; conditions: DM 10^−14 M
# Procedure: The neuron-glia cultures were treated with vehicle, LPS 10 ng/ml alone, and DM (10^−14 M) 30 min pretreatment followed by LPS treatment as in Example 1. Neurotoxicity was assessed by DA uptake as described in Example 1. TNFα production was measured by ELISA and iROS was determined by DCFDA as in Example 5. Results are expressed as a percentage of the control culture in FIG. 7A, pg/ml in FIG. 7B, and difference from control in FIG. 7C, respectively, and are the mean±S.E.M. of five individual experiments with triplicates in each experiment. *, P<0.05 compared with LPS culture.
# TNFα = experiment: Serum and liver TNFα (ELISA) in LPS/GalN endotoxic shock; assay type: in vivo, mouse
# Procedure: Blood was collected from the eye while the mice were anesthetized, and then perfused with saline. Perfused liver samples were collected and frozen at −70° C. The blood samples were stored at 4° C. overnight and then centrifuged at 1500×g at 4° C. for 15 min. Serum was collected and stored at −70° C. for ALT, and TNFα ELISA assays. The frozen liver samples were homogenized in 10 mg/ml cold lysis buffer (20 mM Tris, 0.25 M sucrose, 2 mM EDTA, 10 mM EGTA, 1% Triton X-100 and protein cocktail inhibitor), and then centrifuged at 35,000×g for 40 min. The supernatant was then collected for protein assay using BCA Protein Assay Reagent Kit (Prod#23227, PIERCE), and ELISA for TNFα.
# The levels of TNFα in the serum and liver were determined as in Example 1.
# TNFα, an important factor that plays an important role in sepsis, was studied as a mechanism of the protective effect of DM in LPS/GalN-challenge mice. DM (12.5 mg/kg, […].) was administered to mice, followed by LPS/GalN challenge 30 min later. Serum and liver TNFα level was assessed using ELISA at the indicated time points.
# GDNF = GDNF mRNA (real-time PCR) in primary astroglia; assay type: cell-based, rat; conditions: VPA 0.6 mM
# Procedure: Rat primary astroglias were exposed to 0.6 in M VPA for various times ranging from 6 to 48 hours. Total RNA was extracted from cells by Tri reagent (Sigma) and purified with RNeasy columns (Qiagen, Valencia, Calif.). Expression of the selected genes was quantified using real-time RT-PCR analysis. Briefly, total RNA was reverse transcribed with MuLV reverse transcriptase and oligo-dT primers. The forward and reverse primers for selected genes were designed using Primer Express software. The SYBR green DNA PCR kit (Applied Biosystems, Foster City, Calif.) was used for real-time PCR analysis. The relative differences in expression between groups were expressed using cycle time (Ct) values and the relative differences between groups were expressed as relative increases setting the control as 100%. Assuming that the Ct value is reflective of the initial starting copy and that there is 100% efficacy, a difference of one cycle is equivalent to a two-fold difference in the starting copy.
# [3] = DM 12.5 mg/kg 30 min before LPS/GalN, 1.5 and 2 hours
compound,measurement,setting,value
"Oc1ccc2c(c1)[C@@]13CCCC[C@H]1[C@@H](C2)NCC3 [3-HM, 3-hydroxymorphinan]",LPS-induced reduction in DA uptake,[1]; 3-HM 1-5 μM pretreatment,significantly attenuated the LPS-induced reduction in DA uptake
"COc1ccc2c(c1)[C@@]13CCCC[C@H]1[C@@H](C2)N(C)CC3 [DM, d-3-methoxy-N-methylmorphinan]",LPS-induced decrease in [3H]-dopamine uptake,[1]; DM 10^−5 and 10^−6 M,attenuated the LPS-induced decrease
same,LPS-induced decrease in [3H]-dopamine uptake,[1]; DM 10^−8 to 10^−12 M,no protective effects
same,Aβ-induced neurotoxicity (DA uptake),[2],neuroprotective effect
same,LPS-induced iROS production,iROS; PHOX+/+ mice,significantly inhibited iROS production
same,LPS-induced iROS production,iROS; PHOX−/− mice,failed to show any effect
same,liver TNFα level,TNFα; [3],significantly decreased TNFα level
same,serum TNFα level,TNFα; [3],significantly decreased TNFα level
same,TNFα level,TNFα; DM 30 min post LPS/GalN (data not shown),suppression of TNFα level was also found
"CCCC(CCC)C(=O)O [VPA, Valproic acid]",GDNF mRNA levels,"GDNF; 12 hours, control as 100%",about 180%
same,GDNF mRNA levels,"GDNF; 24 hours, control as 100%",~265%
same,GDNF mRNA levels,GDNF; 48 hours,back to the control value

# From patent US8796302B2 (priority 2004, dated 2014)
